# Patent US20240058283A1, “THE MODE OF ACTION OF N-MeDCPA ON TRPC CHANNELS” (West Virginia University Board of Governors on Behalf of …, priority 2022, published 2024)
# Like-named read-outs stand apart in the source and are kept apart here.
# What was measured:
# [1] = system: bone erosion in collagen-induced arthritis (CIA); assay: Collagen-induced arthritis (CIA) bone erosion in mice; format: in vivo
# Excerpt: Inflammatory arthritis often requires treatments with serious side effects. Later in arthritis, bone erosion is a major problem that causes severe pain and debilitation. There is no small molecule drug available to specifically treat arthritis bone erosion. […] In previous studies, we had focused on store-operated Ca^2+ entry as the target of ELP-004, since Orail is required for osteoclast differentiation and ELP-004 blocks RANKL-induced osteoclast differentiation and SOCE at similar concentrations. However, ELP-004 blocks bone erosion in vivo at a remarkable 1000-fold higher efficacy, leading us to question the identity of the critical ion channel. To address this question, we performed a series of ELP-004 dose responses on HEK293 cells overexpressing different combinations of STIM/Orai, TRPC channels or CaV1.2. Remarkably, all TRPC channels were highly sensitive to ELP-004, leading us to consider the possibility that TRPC channels are the true target in arthritis-induced bone erosion. We are currently assessing the possibility that ELP-004 may inhibit osteoclastogenesis with higher efficacy when driven by inflammatory cytokines, both in vitro and in vivo. […]
# [2] = Metabolite formation in mouse liver S9; format: in vitro ADME; settings: cofactors-fortified mouse liver S9, 37 degrees centigrade, 1 hour; LC-MS/MS
# Procedure: (§1) Drug Synthesis—ELP-004 (N-MeDCPA) was synthesized as described in U.S. patent Ser. No. 10/682,320. […] Metabolites formed after incubations using either cofactors-fortified mouse or human liver S9 (mouse liver S9; human liver S9) at 37 degrees centigrade for 1 hour. The reaction was quenched by ultracentrifugation. The supernatant was analyzed using LC-MS/MS analysis using Accela LC (Thermo Scientific, Inc., San Jose, CA) coupled to an LTQ LX or to LTQ Orbitrap XL.
# (§2) ELP-004 is N-(3,4-dichlorophenyl)-N-methylpropanamide. The core structure of ELP-004 is an aniline compound. Aniline compounds, generally, have a high risk of forming reactive metabolites. ELP-004 was specifically designed to preclude formation of reactive metabolites. Methylation of the amide nitrogen improves metabolic stability.
# [3] = Ability to cross the blood brain barrier
# Procedure: ELP-004 was evaluated for its ability to cross the blood brain barrier. […] Other medications, such as for example but not limited to bupropion are known to cause problems due to dopamine transporter binding.
# rats = settings: rat, in vivo
# [4] = Metabolite formation in human liver S9; format: in vitro ADME; settings: cofactors-fortified human liver S9, 37 degrees centigrade, 1 hour; LC-MS/MS
# Procedure: as §1, §2
# Jurkat cells = format: cell-based; parameters: dose or concentration left out as unconfirmed; settings: human
# Procedure: ELP-004 (N-MeDCPA) was specifically developed to preclude metabolizing to two toxic metabolites, N—OH-dichloroaniline and 6-OH-dichloroaniline. In vitro assays for toxicity caused by ELP-004 using Jurkat cells show 50% toxicity at […] and <2% toxicity at […]. […] Thus, ELP-004 has high potential for use as a drug to prevent or reduce bone erosion.
# [5] = Elimination after administration per os; format: in vivo; settings: administered per os
# TRPC5 = biological target: T1, TRPC5 (Homo sapiens, UniProt Q9UL62); assay: FIG. 4 TRPC5 overexpressing cells, fura, OAG in the presence of Ca2+; format: cell-based; settings: TRPC5 O/E cells, N=4
# T1 construct: expressed in transfected cells; host or cells: HEK293 (transient transfection)
# T1 sequence (Q9UL62 1-973): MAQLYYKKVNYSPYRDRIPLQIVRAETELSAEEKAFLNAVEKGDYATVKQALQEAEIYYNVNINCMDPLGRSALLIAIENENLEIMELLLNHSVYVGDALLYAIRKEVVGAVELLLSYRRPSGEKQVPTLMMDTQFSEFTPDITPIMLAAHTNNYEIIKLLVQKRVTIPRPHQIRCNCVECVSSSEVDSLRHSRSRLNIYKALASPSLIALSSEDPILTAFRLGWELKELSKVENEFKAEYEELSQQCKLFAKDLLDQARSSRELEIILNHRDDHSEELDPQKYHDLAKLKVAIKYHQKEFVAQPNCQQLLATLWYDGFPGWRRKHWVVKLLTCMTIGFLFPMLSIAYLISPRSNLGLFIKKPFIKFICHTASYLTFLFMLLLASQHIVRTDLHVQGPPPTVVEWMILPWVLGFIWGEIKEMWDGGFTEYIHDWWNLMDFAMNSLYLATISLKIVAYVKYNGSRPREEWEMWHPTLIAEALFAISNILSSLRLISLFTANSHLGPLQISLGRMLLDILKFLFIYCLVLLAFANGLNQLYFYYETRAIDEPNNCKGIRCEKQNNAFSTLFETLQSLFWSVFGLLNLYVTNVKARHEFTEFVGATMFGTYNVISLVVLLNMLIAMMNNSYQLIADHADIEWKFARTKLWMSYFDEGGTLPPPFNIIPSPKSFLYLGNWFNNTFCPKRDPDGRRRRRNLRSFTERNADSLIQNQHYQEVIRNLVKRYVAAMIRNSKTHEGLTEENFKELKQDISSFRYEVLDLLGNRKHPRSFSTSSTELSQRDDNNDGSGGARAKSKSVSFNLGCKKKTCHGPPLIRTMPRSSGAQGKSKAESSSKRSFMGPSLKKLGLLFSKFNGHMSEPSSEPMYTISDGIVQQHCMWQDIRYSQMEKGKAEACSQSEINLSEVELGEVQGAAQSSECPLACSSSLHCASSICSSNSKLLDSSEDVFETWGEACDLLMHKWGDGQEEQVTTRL
# Excerpt: The assay was done in the presence of Ca^2+. OAG (1-Oleoyl-2-acetyl-sn-glycerol) is a cell permeable DAG analog and directly activates these TRPC channels (i.e. TRPC4 and TRPC5).
smiles,measurement,setting,value
"CCC(=O)N(C)c1ccc(Cl)c(Cl)c1 [ELP-004, N-(3,4-dichlorophenyl)-N-methylpropanamide]",efficacy of blocking bone erosion in vivo relative to RANKL-induced osteoclast differentiation and SOCE,[1]; in vivo versus in vitro concentrations,1000 fold
same,bone erosion in collagen-induced arthritis,"[1]; mice, even after symptoms of arthritis were measurable",strongly suppressed bone erosion
same,formation of reactive or toxic metabolites,[2],No reactive or toxic compounds were formed
same,crossing of the blood brain barrier,[3],does not cross the blood brain barrier
same,oral LD50,rats,> 2.5 g/kg body weight
same,formation of reactive or toxic metabolites,[4],No reactive or toxic compounds were formed
same,toxicity,Jurkat cells; 200,< 2%
same,toxicity,Jurkat cells; 800,50%
same,time until essentially eliminated,[5],≤ 4 h
same,maximal inhibition of TRPC5 against the >50% threshold,TRPC5,does not reach the threshold of >50% inhibition
same,IC50,"TRPC5; OAG, Ca2+ present",0.011 µM
